Earlier results in PMC11477967, “Review of the Structural Characteristics and Biological Activities of Tricholoma Secondary Metabolites (2018–2023)” (Molecules, 2024).
Values after ≈ are worked out from the molar mass of the structure shown. Like-named read-outs stand apart in the source and are kept apart here.

Key:
HeLa [1] = tested on: HeLa; design: method as in PMID 36480815; details: HeLa cell line
[2] = design: method as in PMID 36480815; details: Table 1 summary
[3] = design: method as in PMID 36480815; details: among 50-54
PDF = tested on: PDF; design: method as in PMID 36480815; details: PDF cells
human cancer cell lines = details: Table 1 summary
caspase-9 = tested on: caspase-9; design: method as in PMID 33449279; details: compared to the control group
HeLa [4] = tested on: HeLa; design: method as in PMID 33449279
MCF-7 = tested on: MCF-7; design: method as in PMID 33449279; details: MCF-7 cells
caspase-3 = tested on: caspase-3; design: method as in PMID 33449279; details: compared to the control group

| Compound | IC50 (HeLa [1]) [µg/mL] | cytotoxic activity (H1299) | IC50 (H1299; H1299 cell line) [µg/mL] | cytotoxic activity (HT29) | toxicity to normal or healthy cell lines (L929) | cytotoxic activity (MCF7) | Bioactivities: Antioxidant activity [2] | lipid peroxidation inhibitory activity (rank, words) [3] | IC50 (PDF) [µg/mL] | Bioactivities: Cytotoxic against human cancer cell lines (human cancer cell lines) | cytotoxic activity (HT29; HT29) | IC50 (L929; L929 cells) [µg/mL] | activation of caspase-9 (caspase-9) | cytotoxicity (HeLa [4]) | IC50 (MCF-7) [µM] | activation of caspase-3 (caspase-3) |
| --- | --- | --- | --- | --- | --- | --- | --- | --- | --- | --- | --- | --- | --- | --- | --- | --- |
| CC(C)C(C)/C=C/[C@@H](C)C1CCC2C3=C[C@H](O)[C@@]45C[C@@H](O)CC[C@]4(C)[C@]3(CC[C@@]21C)O5 (stereo partly drawn) [Compound 50, anatoluin A] | 14.3 ± 1.7 (≈ 33.4 µM) | selectively inhibited | 34.3 ± 1.1 (≈ 80 µM) | selectively inhibited | almost no toxicity | selectively inhibited | Antioxidant activity | most active |  |  |  |  |  |  |  |  |
| CC(C)C(C)C=CC(C)C1CCC2C1(C)CCC1C23C=CC2(CC(O)CCC12C)OO3 (stereo not drawn) [Compound 53, ergosterol-endoperoxide] |  |  |  |  |  |  | Antioxidant activity |  | 52.8 ± 0.5 (≈ 123 µM) | Cytotoxic against human cancer cell lines | selectively inhibited | 65.6 ± 2.2 (≈ 153 µM) |  |  |  |  |
| C=C1CCC(CCC2CC=C(C3(C)CCC(=O)C(C)(C)O3)OC2)C(C)(C)C1CC=C1C(=O)OCC1O (stereo not drawn) [Compound 63, tricholopardin C] |  |  |  |  |  |  |  |  |  | Cytotoxic against human cancer cell lines |  |  | activation | cytotoxicity | 4.7 | activation |
